According to patent US9914736B2, “TrKA kinase inhibitors, compositions and methods thereof” (Merck Sharp & Dohme Corp., priority 2014, dated 2018):

Biological target: human TrkA receptor (Homo sapiens (Human), UniProt P04629)
Test: DiscoverX PathHunter TrkA functional assay
Type: cell-based
Settings: U2OS cells expressing human TrkA-ProLink, Shc1-EA and p75NTR; compound 1 h, then NGF at ~80% of maximal response for 3 h; luminescence
Method: TrkA functional activity was measured using a DiscoverX PathHunter assay. In this assay, U2OS cells express the human TrkA receptor as a fusion with the weakly complementing fragment of B-galactosidase, which DiscoverX calls “Prolink (PK)”; additionally, Shc1 is fused with a larger fragment, which is called “Enzyme Acceptor (EA)”. Activation of the TrkA receptor, upon NGF addition, results in the kinase domain being phosphorylated, resulting in subsequent recruitment of Shc1-EA protein. That recruitment results in an active B-galactosidase enzyme that is detected by addition of a chemiluminescent substrate. The human p75^NTR protein was also expressed as a co-receptor for NGF.
All reagents were purchased from DiscoverX, except for the receptor agonists (NGF, BDNF, NT3) which were purchased from Peprotech. Cells were expanded and frozen into cryovials, and stored in the vapor phase of liquid nitrogen, and thawed immediately before use. Thawed cells were added to a 384-well plate at 7500 cells/well, and allowed to incubate overnight. Compound at various concentrations was added the following morning and allowed to incubate on cells for 1 h. Then, NGF was added at a concentration sufficient to elicit ˜80% of a maximal response and allowed to incubate for 3 h at ambient temperature. DiscoverX PathHunter detection reagent was then added and the plate was further incubated for 1 h in the dark. The plate was then read via luminescence on the Perkin Elmer Envision.

Chain of human TrkA receptor (P04629 33-796): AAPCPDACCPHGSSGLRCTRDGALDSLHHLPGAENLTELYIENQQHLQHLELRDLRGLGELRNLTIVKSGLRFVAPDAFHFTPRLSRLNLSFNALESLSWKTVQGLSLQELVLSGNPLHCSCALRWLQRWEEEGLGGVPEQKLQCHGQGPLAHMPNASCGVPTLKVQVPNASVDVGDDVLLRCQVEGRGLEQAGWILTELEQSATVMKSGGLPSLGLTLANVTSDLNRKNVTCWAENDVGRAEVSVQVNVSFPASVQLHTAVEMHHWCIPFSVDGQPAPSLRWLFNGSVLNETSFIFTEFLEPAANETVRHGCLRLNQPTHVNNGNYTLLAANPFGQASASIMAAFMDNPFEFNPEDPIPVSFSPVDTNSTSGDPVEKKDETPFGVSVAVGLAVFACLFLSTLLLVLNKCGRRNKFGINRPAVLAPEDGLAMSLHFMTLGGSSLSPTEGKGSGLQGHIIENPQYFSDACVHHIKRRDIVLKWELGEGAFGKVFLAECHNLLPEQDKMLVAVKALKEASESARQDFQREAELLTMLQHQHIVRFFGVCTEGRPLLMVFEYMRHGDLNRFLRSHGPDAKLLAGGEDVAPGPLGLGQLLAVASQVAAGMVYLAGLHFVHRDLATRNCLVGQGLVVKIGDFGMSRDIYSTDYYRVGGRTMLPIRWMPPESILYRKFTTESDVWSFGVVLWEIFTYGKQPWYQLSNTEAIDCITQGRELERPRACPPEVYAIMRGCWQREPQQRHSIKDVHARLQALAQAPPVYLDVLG

SMILES	IC50
Cc1nc(-c2ccccc2)c(NC(=O)c2ccc(C(F)(F)F)cc2F)s1 [Compound 1, 2-fluoro-N-(2-methyl-4-phenyl-1,3-thiazol-5-yl)-4-(trifluoromethyl)benzamide]	780 nM
Cc1csc(-c2cc(C(=O)Nc3cc(-c4ccccn4)nn3-c3cc(C)[nH]n3)ccc2C(F)(F)F)n1 [Compound 6, N-(5′-methyl-3-pyridin-2-yl-1′H-1,3′-bipyrazol-5-yl)-3-(4-methyl-1,3-thiazol-2-yl)-4-(trifluoromethyl)benzamide]	1.7 nM
Cn1cc(Cc2cc(NC(=O)c3ccc(C(F)(F)F)c(-c4ccn(C)n4)c3)n(-c3ccc(F)cc3)n2)cn1 [Compound 90, N-(1-(4-fluorophenyl)-3-((1-methyl-1H-pyrazol-4-yl)methyl)-1H-pyrazol-5-yl)-3-(1-methyl-1H-pyrazol-3-yl)-4-(trifluoromethyl)benzamide]	3.6 nM
Cn1ccc(-c2cc(C(=O)Nc3cc(Cc4ccc(=O)[nH]n4)nn3-c3ccccc3)ccc2C(F)(F)F)n1 [Compound 28, 3-(1-methyl-1H-pyrazol-3-yl)-N-{3-[(6-oxo-1,6-dihydropyridazin-3-yl)methyl]-1-phenyl-1H-pyrazol-5-yl}-4-(trifluoromethyl)benzamide]	6.6 nM
Cc1cc(NC(=O)c2cc(-c3ccn(C)n3)c(C(F)(F)F)cc2Cl)n(-c2cc(C)[nH]n2)n1 [Compound 48, 2-chloro-N-(3,5′-dimethyl-1′H-1,3′-bipyrazol-5-yl)-5-(1-methyl-1H-pyrazol-3-yl)-4-(trifluoromethyl)benzamide]	0.82 nM
Cc1csc(-c2cc(C(=O)Nc3cc(-c4ccncc4)nn3-c3ccccc3)ccc2Cl)n1 [Compound 21, 4-chloro-3-(4-methyl-1,3-thiazol-2-yl)-N-(1-phenyl-3-pyridin-4-yl-1H-pyrazol-5-yl)benzamide]	2.7 nM
CNC(=O)Cc1cc(NC(=O)c2cc(-c3ccn(C)n3)c(C(F)(F)F)cc2F)n(-c2ccc(F)cc2)n1 [Compound 114, 2-fluoro-N-(1-(4-fluorophenyl)-3-(2-(methylamino)-2-oxoethyl)-1H-pyrazol-5-yl)-5-(1-methyl-1H-pyrazol-3-yl)-4-(trifluoromethyl)benzamide]	2.4 nM
Cn1nnnc1Cc1cc(NC(=O)c2cc(-c3ncccn3)c(C(F)(F)F)cc2F)n(-c2ccc(F)cc2)n1 [Compound 104, 2-fluoro-N-(1-(4-fluorophenyl)-3-((1-methyl-1H-tetrazol-5-yl)methyl)-1H-pyrazol-5-yl)-5-(pyrimidin-2-yl)-4-(trifluoromethyl)benzamide]	1.6 nM
O=C(Nc1cc(-c2ccc(=O)[nH]n2)nn1-c1ccccc1)c1ccc(C(F)(F)F)c(-c2ccn(CC(F)(F)F)n2)c1 [Compound 70, N-[3-(6-oxo-1,6-dihydropyridazin-3-yl)-1-phenyl-1H-pyrazol-5-yl]-3-[1-(2,2,2-trifluoroethyl)-1H-pyrazol-3-yl]-4-(trifluoromethyl)benzamide]	390 nM
O=C(Nc1cc(CCO)nn1-c1ccc(F)cc1)c1cc(-c2ncccn2)c(C(F)(F)F)cc1F [Compound 93, 2-fluoro-N-(1-(4-fluorophenyl)-3-(2-hydroxyethyl)-1H-pyrazol-5-yl)-5-(pyrimidin-2-yl)-4-(trifluoromethyl)benzamide]	12 nM
Cn1ccc(-c2cc(C(=O)Nc3cn(C)nc3-c3ccccc3)ccc2C(F)(F)F)n1 [Compound 43, N-(1-methyl-3-phenyl-1H-pyrazol-4-yl)-3-(1-methyl-1H-pyrazol-3-yl)-4-(trifluoromethyl)benzamide]	11 nM
Cn1ccc(-c2cc(C(=O)Nc3cc(-c4ccccc4)nn3C)ccc2C(F)(F)F)n1 [Compound 20, N-(1-methyl-3-phenyl-1H-pyrazol-5-yl)-3-(1-methyl-1H-pyrazol-3-yl)-4-(trifluoromethyl)benzamide]	1400 nM
O=C(Nc1cc(C(=O)N2CCC2)nn1-c1ccc(F)cc1)c1cc(-c2ncccn2)c(C(F)(F)F)cc1F [Compound 88, N-(3-(azetidine-1-carbonyl)-1-(4-fluorophenyl)-1H-pyrazol-5-yl)-2-fluoro-5-(pyrimidin-2-yl)-4-(trifluoromethyl)benzamide]	14 nM
Cn1ccc(-c2cc(C(=O)Nc3cc(Cc4cnc(N)nc4)nn3-c3ccc(F)cc3)ccc2C(F)(F)F)n1 [Compound 91, N-(3-((2-aminopyrimidin-5-yl)methyl)-1-(4-fluorophenyl)-1H-pyrazol-5-yl)-3-(1-methyl-1H-pyrazol-3-yl)-4-(trifluoromethyl)benzamide]	6.1 nM
Cn1ccc(-c2cc(C(=O)Nc3cc(-c4ccc(=O)[nH]n4)nn3-c3ccccc3)ccc2C(F)(F)F)n1 [Compound 11, 3-(1-methyl-1H-pyrazol-3-yl)-N-[3-(6-oxo-1,6-dihydropyridazin-3-yl)-1-phenyl-1H-pyrazol-5-yl]-4-(trifluoromethyl)benzamide]	5.5 nM
O=C(Nc1cc(-c2ccc(CCO)cc2)nn1-c1ccc(F)cc1)c1cc(-c2ncccn2)c(C(F)(F)F)cc1F [Compound 101, 2-fluoro-N-(1-(4-fluorophenyl)-3-(4-(2-hydroxyethyl)phenyl)-1H pyrazol-5-yl)-5-(pyrimidin-2-yl)-4-(trifluoromethyl)benzamide]	3.4 nM

SMILES	IC50
O=C(Nc1cc(CO)nn1-c1ccc(F)cc1)c1cc(-c2ncccn2)c(C(F)(F)F)cc1F [Compound 97, 2-fluoro-N-(1-(4-fluorophenyl)-3-(hydroxymethyl)-1H-pyrazol-5-yl)-5-(pyrimidin-2-yl)-4-(trifluoromethyl)benzamide]	14 nM
NC(=O)c1ccc(-c2cc(NC(=O)c3ccc(C(F)(F)F)cc3Cl)n(-c3ccccc3)n2)nc1 [Compound 4, 6-[5-({[2-chloro-4-(trifluoromethyl)phenyl]carbonyl}amino)-1-phenyl-1H-pyrazol-3-yl]pyridine-3-carboxamide]	48 nM
O=C(Nc1cc(-c2ccc(=O)[nH]n2)nn1-c1ccccc1)c1ccc(C(F)(F)F)cc1Cl [Compound 10, 2-chloro-N-[3-(6-oxo-1,6-dihydropyridazin-3-yl)-1-phenyl-1H-pyrazol-5-yl]-4-(trifluoromethyl)benzamide]	290 nM
Cc1cc(-n2nc(-c3cnn(C)c3)cc2NC(=O)c2ccc(C(F)(F)F)c(-c3cccnc3)c2)n[nH]1 [Compound 8, N-(1″,5-dimethyl-1H,1″H-3,1′:3′,4″-terpyrazol-5′-yl)-3-pyridin-3-yl-4-(trifluoromethyl)benzamide]	2100 nM
Cn1ccc(-c2cc(C(=O)Nc3cc(Cc4nnn(C)n4)nn3-c3ccc(F)cc3)c(F)cc2C(F)(F)F)n1 [Compound 85, 2-fluoro-N-(1-(4-fluorophenyl)-3-((2-methyl-2H-tetrazol-5-yl)methyl)-1H-pyrazol-5-yl)-5-(1-methyl-1H-pyrazol-3-yl)-4-(trifluoromethyl)benzamide]	1.2 nM
Cn1ccc(-c2cc(C(=O)Nc3cc(Cc4nnn(C)n4)nn3-c3ccccc3)c(Cl)cc2C(F)(F)F)n1 [Compound 58, 2-chloro-5-(1-methyl-1H-pyrazol-3-yl)-N-{3-[(2-methyl-2H-tetrazol-5-yl)methyl]-1-phenyl-1H-pyrazol-5-yl}-4-(trifluoromethyl)benzamide]	3.4 nM
Cn1ccc(-c2cc(C(=O)Nc3cn(C)nc3-c3ccccc3)c(F)cc2C(F)(F)F)n1 [Compound 65, 2-fluoro-N-(1-methyl-3-phenyl-1H-pyrazol-4-yl)-5-(1-methyl-1H-pyrazol-3-yl)-4-(trifluoromethyl)benzamide]	4.5 nM
O=C(Nc1cc(Cn2cccn2)nn1-c1ccc(F)cc1)c1cc(-c2ncccn2)c(C(F)(F)F)cc1F [Compound 87, N-(3-((1H-pyrazol-1-yl)methyl)-1-(4-fluorophenyl)-1H-pyrazol-5-yl)-2-fluoro-5-(pyrimidin-2-yl)-4-(trifluoromethyl)benzamide]	6.6 nM
Cc1nc(-c2ccccc2)c(NC(=O)c2cc(-c3ccn(C)n3)c(C(F)(F)F)cc2F)n1C [Compound 63, N-(1,2-dimethyl-4-phenyl-1H-imidazol-5-yl)-2-fluoro-5-(1-methyl-1H-pyrazol-3-yl)-4-(trifluoromethyl)benzamide]	8.4 nM
Cc1cc(-n2nc(C(=O)NC3CN(C)C3)cc2NC(=O)c2ccc(C(F)(F)F)c(-c3ccn(C)n3)c2)[nH]n1 [Compound 27, 5′-methyl-N-(1-methylazetidin-3-yl)-5-({[3-(1-methyl-1H-pyrazol-3-yl)-4-(trifluoromethyl)phenyl]carbonyl}amino)-2′H-1,3′-bipyrazole-3-carboxamide]	10 nM
O=C(Nc1cc(-c2ccncc2)nn1-c1cc(C(F)(F)F)n[nH]1)c1ccc(Cl)c(-c2cc[nH]n2)c1 [Compound 41, 4-chloro-3-(1H-pyrazol-3-yl)-N-[3-pyridin-4-yl-5′-(trifluoromethyl)-2′H-1,3′-bipyrazol-5-yl]benzamide]	240 nM
O=C(Nc1cn[nH]c1-c1ccccc1)c1cc(-c2cc[nH]n2)c(C(F)(F)F)cc1F [Compound 62, 2-fluoro-N-(5-phenyl-1H-pyrazol-4-yl)-5-(1H-pyrazol-3-yl)-4-(trifluoromethyl)benzamide]	85 nM
Cn1ccc(-c2cc(C(=O)Nc3cc(Cc4cnc(N)cn4)nn3-c3ccc(F)cc3)ccc2C(F)(F)F)n1 [Compound 94, N-(3-((5-aminopyrazin-2-yl)methyl)-1-(4-fluorophenyl)-1H-pyrazol-5-yl)-3-(1-methyl-1H-pyrazol-3-yl)-4-(trifluoromethyl)benzamide]	1.7 nM
Cn1ccc(-c2cc(C(=O)Nc3cc(Cc4nnnn4C)nn3-c3ccccc3)c(Cl)cc2C(F)(F)F)n1 [Compound 59, 2-chloro-5-(1-methyl-1H-pyrazol-3-yl)-N-{3-[(1-methyl-1H-tetrazol-5-yl)methyl]-1-phenyl-1H-pyrazol-5-yl}-4-(trifluoromethyl)benzamide]	1.7 nM
Cn1ccc(-c2cc(C(=O)Nc3cc(-c4ccc(=O)[nH]n4)nn3-c3ccccc3)ccc2OC(F)(F)F)n1 [Compound 71, 3-(1-methyl-1H-pyrazol-3-yl)-N-[3-(6-oxo-1,6-dihydropyridazin-3-yl)-1-phenyl-1H-pyrazol-5-yl]-4-(trifluoromethoxy)benzamide]	89 nM
